# Assay results taken from ChEMBL document CHEMBL1154880, “Hydroxylated sclerosporin derivatives from the marine-derived fungus Cadophora malorum” (J Nat Prod, 2010).
# Active and inactive are the calls of the source. The rule behind the calls is not given here.
# What was measured:
# [1] = system: Escherichia coli; experiment: Antibacterial activity against Escherichia coli at 50 ug/disk; format: functional, organism-based
# [2] = system: Priestia megaterium; experiment: Antibacterial activity against Bacillus megaterium at 50 ug/disk; format: functional, organism-based
# [3] = system: Mycotypha microspora; experiment: Antifungal activity against Mycotypha microspora at 50 ug/disk; format: functional, organism-based
# [4] = system: Aspergillus ruber; experiment: Antifungal activity against Eurotium rubrum at 50 ug/disk; format: functional, organism-based
# [5] = system: Microbotryum violaceum; experiment: Antifungal activity against Microbotryum violaceum at 50 ug/disk; format: functional, organism-based
# [6] = system: [Chlorella] fusca; experiment: Antialgal activity against Chlorella fusca at 50 ug/disk; format: functional, organism-based; settings: Scenedesmus fuscus
# [7] = molecular target: Neutrophil elastase (Homo sapiens) (UniProt P08246); experiment: Inhibition of human neutrophil elastase at 100 uM
# Chain of Neutrophil elastase (Homo sapiens) (P08246 whole entry): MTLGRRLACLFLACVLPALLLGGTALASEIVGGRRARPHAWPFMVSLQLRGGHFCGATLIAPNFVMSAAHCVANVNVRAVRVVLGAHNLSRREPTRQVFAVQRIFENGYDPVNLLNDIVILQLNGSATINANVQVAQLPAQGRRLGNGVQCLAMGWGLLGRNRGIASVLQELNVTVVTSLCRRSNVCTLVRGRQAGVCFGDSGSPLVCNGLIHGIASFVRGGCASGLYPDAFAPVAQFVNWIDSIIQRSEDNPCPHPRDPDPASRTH
# [8] = system: NCI-H460; experiment: Cytotoxicity against human NCI-H460 cells at 100 uM after 48 hrs by sulforhodamine B assay; format: functional, cell-based
# [9] = system: MCF7; experiment: Cytotoxicity against human MCF7 cells at 100 uM after 48 hrs by sulforhodamine B assay; format: functional, cell-based
# [10] = system: SF-268; experiment: Cytotoxicity against human SF268 cells at 100 uM after 48 hrs by sulforhodamine B assay; format: functional, cell-based
# [11] = molecular target: Dual specificity tyrosine-phosphorylation-regulated kinase 1A (Homo sapiens) (UniProt Q13627); experiment: Inhibition of DYRK1A at […]
# [12] = molecular target: Cyclin-dependent kinase 5 (Homo sapiens) (UniProt Q00535); experiment: Inhibition of CDK5 at […]
# Chain of Cyclin-dependent kinase 5 (Homo sapiens) (Q00535 whole entry, looked up): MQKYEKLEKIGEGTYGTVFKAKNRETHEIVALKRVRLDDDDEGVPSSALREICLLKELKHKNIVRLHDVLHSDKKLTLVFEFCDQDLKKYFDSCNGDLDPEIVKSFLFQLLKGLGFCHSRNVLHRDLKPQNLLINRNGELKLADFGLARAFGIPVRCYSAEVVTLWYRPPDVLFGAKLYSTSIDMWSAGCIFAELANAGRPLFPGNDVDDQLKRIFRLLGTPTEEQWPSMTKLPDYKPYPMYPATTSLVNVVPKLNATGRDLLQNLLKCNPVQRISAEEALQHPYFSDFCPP
# [13] = system: Human immunodeficiency virus 1; experiment: Antiviral activity against HIV1 infected in human MT4 cells assessed as inhibition of virus-induced cytopathogenic effect at 50 ug/ml after 5 days by MTT assay; format: functional, organism-based
# [14] = system: Human immunodeficiency virus 2; experiment: Antiviral activity against HIV2 infected in human MT4 cells assessed as inhibition of virus-induced cytopathogenic effect at 50 ug/ml after 5 days by MTT assay; format: functional, organism-based
# [15] = system: Human gammaherpesvirus 4; experiment: Antiviral activity against Epstein-Barr virus at 100 ug/ml; format: functional, organism-based
# [16] = system: Plasmodium berghei; experiment: Antiplasmodial activity against Plasmodium berghei sporozoites expressing GFP infected in hepatocytes at 25 uM by flow cytometry; format: functional, organism-based; settings: Hepatocyte
# [17] = system: SARS-CoV; experiment: Antiviral activity against SARS virus infected in african green monkey Vero76 cells assessed as inhibition of virus-induced cytopathogenic effect at 100 ug/ml after 3 days by neutral red uptake assay; format: functional, organism-based; settings: Severe acute respiratory syndrome-related coronavirus, Vero 76
# [18] = system: Influenza A virus; experiment: Antiviral activity against influenza A H5N1 subtype at 100 ug/ml; format: functional, organism-based
# [19] = system: Influenza B virus; experiment: Antiviral activity against influenza B at 100 ug/ml; format: functional, organism-based
# [20] = system: 3T3-L1; experiment: Inhibition of adipogenesis in mouse 3T3L1 cells assessed as triglyceride accumulation after 7 days; format: functional, cell-based; settings: 3T3-L1, 168 h
# [21] = system: 3T3-L1; experiment: Inhibition of adipogenesis in mouse 3T3L1 cells assessed as triglyceride accumulation at 100 ug/ml after 7 days relative to control; format: functional; set-up: scale not given: the % may be the effect or the level left
# [22] = system: 3T3-L1; experiment: Inhibition of adipogenesis in mouse 3T3L1 cells assessed as triglyceride accumulation at 20 ug/ml after 7 days relative to control; format: functional; set-up: scale not given: the % may be the effect or the level left
# [23] = system: 3T3-L1; experiment: Inhibition of adipogenesis in mouse 3T3L1 cells assessed as triglyceride accumulation at 4 ug/ml after 7 days relative to control; format: functional; set-up: scale not given: the % may be the effect or the level left
# [24] = system: 3T3-L1; experiment: Cytotoxicity against mouse 3T3L1 cells assessed as cell viability after 7 days; format: cell-based; settings: 3T3-L1, 168 h
# [25] = Cytotoxicity against mouse 3T3L1 cells assessed as cell viability at 100 ug/ml after 7 days relative to control; format: cell-based; settings: 3T3-L1 cells, read-out: Activity
# [26] = Cytotoxicity against mouse 3T3L1 cells assessed as cell viability at 20 ug/ml after 7 days relative to control; format: cell-based; settings: 3T3-L1 cells, read-out: Activity
# [27] = Cytotoxicity against mouse 3T3L1 cells assessed as cell viability at 4 ug/ml after 7 days relative to control; format: cell-based; settings: 3T3-L1 cells, read-out: Activity
# [28] = system: 3T3-L1; experiment: Inhibition of adipogenesis in mouse 3T3L1 cells assessed as triglyceride accumulation at 50 ug/ml after 7 days relative to control; format: functional; set-up: scale not given: the % may be the effect or the level left
# [29] = system: 3T3-L1; experiment: Inhibition of adipogenesis in mouse 3T3L1 cells assessed as triglyceride accumulation at 25 ug/ml after 7 days relative to control; format: functional; set-up: scale not given: the % may be the effect or the level left
# [30] = Cytotoxicity against mouse 3T3L1 cells assessed as cell viability at 50 ug/ml after 7 days relative to control; format: cell-based; settings: 3T3-L1 cells, read-out: Activity
# [31] = Cytotoxicity against mouse 3T3L1 cells assessed as cell viability at 25 ug/ml after 7 days relative to control; format: cell-based; settings: 3T3-L1 cells, read-out: Activity
SMILES,Activity [1],Activity [2],Activity [3],Activity [4],Activity [5],Activity [6],IC50 [20] [µg/mL],Activity [21] [%],IC50 [24] [µg/mL],"viability at 168 h, 100 ug/ml [25] [%]",further results
CC(C)[C@H]1CC=C(C(=O)O)[C@@H]2CCC(CO)=C[C@H]12,inactive,inactive,inactive,inactive,inactive,inactive,–,–,–,–,inhibition [7]: inactive; inhibition [8]: inactive; inhibition [9]: inactive; inhibition [10]: inactive; inhibition [11]: inactive; inhibition [12]: inactive; inhibition [13]: inactive; inhibition [14]: inactive; inhibition [15]: inactive; inhibition [16]: inactive; Activity [17]: inactive; Activity [18]: inactive; Activity [19]: inactive
CC1=C[C@@H]2[C@@H](C(C)CO)CC=C(C(=O)O)[C@@H]2CC1 (some centres undefined),inactive,inactive,inactive,inactive,inactive,inactive,–,–,–,–,–
CC1=C[C@H]2[C@@H](CC1)C(C(=O)O)=CC[C@@H]2C(C)(C)O,inactive,inactive,inactive,inactive,inactive,inactive,–,–,–,–,–
CC1=C[C@@H]2[C@@H](C(C)C)[C@H](O)C=C(C(=O)O)[C@@H]2CC1,inactive,inactive,inactive,inactive,inactive,inactive,53,26,76,46,"Activity [22]: 133%; Activity [23]: 117%; viability at 168 h, 20 ug/ml [26]: 79%; viability at 168 h, 4 ug/ml [27]: 82%"
NC[C@H](O)c1ccc(O)c(O)c1 [NOREPINEPHRINE],–,–,–,–,–,–,69,33,> 100,69,"Activity [28]: 64%; Activity [29]: 71%; viability at 168 h, 50 ug/ml [30]: 102%; viability at 168 h, 25 ug/ml [31]: 123%"
CC1=C[C@@H]2[C@@H](C(C)C)CC=C(C(=O)O)[C@@H]2CC1,inactive,inactive,inactive,inactive,inactive,inactive,–,–,–,–,–
